Source: ChEMBL document CHEMBL3826966, “A chromatography-free isolation of rohitukine from leaves of Dysoxylum binectariferum: Evaluation for in vitro cytotoxicity, Cdk inhibition and physicochemical properties” (Bioorg Med Chem Lett, 2016)
Values after ≈ are worked out from the molar mass of the structure shown.

Columns and labels:
MAP4K2 = assay: Inhibition of human GCK (2 to 812 residues) assessed as remaining enzyme activity at 50 uM after 30 mins by 33P-ATP filter-binding assay
[1] = molecular target: Tyrosine-protein kinase JAK2 (Homo sapiens) (UniProt O60674); assay: Inhibition of human JAK2 assessed as remaining enzyme activity at 50 uM after 30 mins by 33P-ATP filter-binding assay
[2] = molecular target: Glycogen synthase kinase-3 beta (Homo sapiens) (UniProt P49841); assay: Inhibition of human GSK3beta (2 to 420 residues) assessed as remaining enzyme activity at 50 uM after 30 mins by 33P-ATP filter-binding assay
[3] = Stability in SIF solution assessed as reduction in compound AUC at 120 ug/ml after 8 hrs by RP-HPLC analysis; format: physicochemical; details: read-out: Drug degradation
[4] = molecular target: Serine/threonine-protein kinase D1 (Homo sapiens) (UniProt Q15139); assay: Inhibition of human PKD1 (2 to 912 residues) assessed as remaining enzyme activity at 50 uM after 30 mins by 33P-ATP filter-binding assay
[5] = molecular target: Dual specificity tyrosine-phosphorylation-regulated kinase 2 (Homo sapiens) (UniProt Q92630); assay: Inhibition of human DYRK2 (3 to 528 residues) assessed as remaining enzyme activity at 50 uM after 30 mins by 33P-ATP filter-binding assay
T47D = assay: Cytotoxicity against human T47D cells assessed as cell growth inhibition after 48 hrs by MTT assay; format: functional
[6] = molecular target: Dual specificity testis-specific protein kinase 1 (Homo sapiens) (UniProt Q15569); assay: Inhibition of human TESK1 (1 to 345 residues) assessed as remaining enzyme activity at 50 uM after 30 mins by 33P-ATP filter-binding assay
[7] = molecular target: Ephrin type-A receptor 2 (Homo sapiens) (UniProt P29317); assay: Inhibition of human EPHA2 (591 to 976 residues) assessed as remaining enzyme activity at 50 uM after 30 mins by 33P-ATP filter-binding assay
[8] = Thermodynamic equilibrium solubility in stimulated intestinal fluid at 120 ug/ml at pH 6.8 by HPLC analysis; format: ADME; details: simulated intestinal fluid, read-out: Therm_solubility
[9] = molecular target: Mitogen-activated protein kinase 12 (Homo sapiens) (UniProt P53778); assay: Inhibition of human p38gamma MAPK (1 to 367 residues) assessed as remaining enzyme activity at 50 uM after 30 mins by 33P-ATP filter-binding assay
[10] = Cytotoxicity against human PC3 cells assessed as cell growth inhibition after 48 hrs by MTT assay; format: functional; details: PC-3, 48 h
[11] = molecular target: Mitogen-activated protein kinase kinase kinase 7 (Homo sapiens) (UniProt O43318); assay: Inhibition of human TAK1 (1 to 303 residues) assessed as remaining enzyme activity at 50 uM after 30 mins by 33P-ATP filter-binding assay
[12] = Thermodynamic equilibrium solubility in water at 120 ug/ml by HPLC analysis; format: physicochemical; details: read-out: Therm_solubility
[13] = molecular target: MAP/microtubule affinity-regulating kinase 4 (Homo sapiens) (UniProt Q96L34); assay: Inhibition of human MARK4 (2 to 752 residues) assessed as remaining enzyme activity at 50 uM after 30 mins by 33P-ATP filter-binding assay
[14] = molecular target: Dual specificity mitogen-activated protein kinase kinase 6 (Homo sapiens) (UniProt P52564); assay: Inhibition of human MKK6 (2 to 334 residues) assessed as remaining enzyme activity at 50 uM after 30 mins by 33P-ATP filter-binding assay
[15] = Cell cycle arrest in human HL60 cells assessed as accumulation at G1 phase at 1 uM (reference value: 59 %); format: functional, cell-based; details: HL-60
[16] = molecular target: Mitogen-activated protein kinase 13 (Homo sapiens) (UniProt O15264); assay: Inhibition of human p38delta MAPK (1 to 365 residues) assessed as remaining enzyme activity at 50 uM after 30 mins by 33P-ATP filter-binding assay
PSN1 = assay: Cytotoxicity against human PSN1 cells assessed as cell growth inhibition after 48 hrs by MTT assay; format: functional; details: PSN1, 48 h
[17] = molecular target: Dual specificity mitogen-activated protein kinase kinase 2 (Homo sapiens) (UniProt P36507); assay: Inhibition of human MKK2 (2 to 400 residues) assessed as remaining enzyme activity at 50 uM after 30 mins by 33P-ATP filter-binding assay
[18] = molecular target: Eukaryotic elongation factor 2 kinase (Homo sapiens) (UniProt O00418); assay: Inhibition of human EF2K (2 to 725 residues) assessed as remaining enzyme activity at 50 uM after 30 mins by 33P-ATP filter-binding assay
[19] = Cytotoxicity against human PANC1 cells assessed as cell growth inhibition after 48 hrs by MTT assay; format: functional; details: PANC-1, 48 h
[20] = molecular target: Serine/threonine-protein kinase N2 (Homo sapiens) (UniProt Q16513); assay: Inhibition of human PRK2 (501 to 984 residues) assessed as remaining enzyme activity at 50 uM after 30 mins by 33P-ATP filter-binding assay
[21] = Thermodynamic equilibrium solubility in stimulated gastric fluid at 120 ug/ml at pH 1.2 by HPLC analysis; format: ADME; details: simulated gastric fluid, read-out: Therm_solubility
[22] = molecular target: CDK9/cyclin T1 (Homo sapiens) (UniProt O60563+P50750); assay: Inhibition of human Cdk9/T1 using YSPTSPSYSPTSPSYSPTSPKKK peptide as substrate at 0.5 uM after 30 mins by 33P-ATP filter-binding assay; format: protein-complex assay
HL-60 = assay: Induction of apoptosis in human HL60 cells assessed as apoptotic cells at 10 uM (reference value: 1 %); format: functional
[23] = molecular target: Tyrosine-protein kinase CSK (Homo sapiens) (UniProt P41240); assay: Inhibition of human CSK (1 to 450 residues) assessed as remaining enzyme activity at 50 uM after 30 mins by 33P-ATP filter-binding assay
[24] = molecular target: Angiopoietin-1 receptor (Homo sapiens) (UniProt Q02763); assay: Inhibition of human TIE2 (771 to 1124 residues) assessed as remaining enzyme activity at 50 uM after 30 mins by 33P-ATP filter-binding assay
[25] = molecular target: Ribosomal protein S6 kinase beta-1 (Homo sapiens) (UniProt P23443); assay: Inhibition of human S6K1 assessed as remaining enzyme activity at 50 uM after 30 mins by 33P-ATP filter-binding assay
Homo sapiens = species: Homo sapiens; assay: Inhibition of human PKA assessed as remaining enzyme activity at 50 uM after 30 mins by 33P-ATP filter-binding assay
[26] = molecular target: Mitogen-activated protein kinase 3 (Homo sapiens) (UniProt P27361); assay: Inhibition of human ERK1 (1 to 379) assessed as remaining enzyme activity at 50 uM after 30 mins by 33P-ATP filter-binding assay
[27] = molecular target: Mitogen-activated protein kinase 1 (Homo sapiens) (UniProt P28482); assay: Inhibition of human ERK2 (2 to 360 residues) assessed as remaining enzyme activity at 50 uM after 30 mins by 33P-ATP filter-binding assay

Chain of Ephrin type-A receptor 2 (Homo sapiens) (P29317 whole entry, the tested form may be a part): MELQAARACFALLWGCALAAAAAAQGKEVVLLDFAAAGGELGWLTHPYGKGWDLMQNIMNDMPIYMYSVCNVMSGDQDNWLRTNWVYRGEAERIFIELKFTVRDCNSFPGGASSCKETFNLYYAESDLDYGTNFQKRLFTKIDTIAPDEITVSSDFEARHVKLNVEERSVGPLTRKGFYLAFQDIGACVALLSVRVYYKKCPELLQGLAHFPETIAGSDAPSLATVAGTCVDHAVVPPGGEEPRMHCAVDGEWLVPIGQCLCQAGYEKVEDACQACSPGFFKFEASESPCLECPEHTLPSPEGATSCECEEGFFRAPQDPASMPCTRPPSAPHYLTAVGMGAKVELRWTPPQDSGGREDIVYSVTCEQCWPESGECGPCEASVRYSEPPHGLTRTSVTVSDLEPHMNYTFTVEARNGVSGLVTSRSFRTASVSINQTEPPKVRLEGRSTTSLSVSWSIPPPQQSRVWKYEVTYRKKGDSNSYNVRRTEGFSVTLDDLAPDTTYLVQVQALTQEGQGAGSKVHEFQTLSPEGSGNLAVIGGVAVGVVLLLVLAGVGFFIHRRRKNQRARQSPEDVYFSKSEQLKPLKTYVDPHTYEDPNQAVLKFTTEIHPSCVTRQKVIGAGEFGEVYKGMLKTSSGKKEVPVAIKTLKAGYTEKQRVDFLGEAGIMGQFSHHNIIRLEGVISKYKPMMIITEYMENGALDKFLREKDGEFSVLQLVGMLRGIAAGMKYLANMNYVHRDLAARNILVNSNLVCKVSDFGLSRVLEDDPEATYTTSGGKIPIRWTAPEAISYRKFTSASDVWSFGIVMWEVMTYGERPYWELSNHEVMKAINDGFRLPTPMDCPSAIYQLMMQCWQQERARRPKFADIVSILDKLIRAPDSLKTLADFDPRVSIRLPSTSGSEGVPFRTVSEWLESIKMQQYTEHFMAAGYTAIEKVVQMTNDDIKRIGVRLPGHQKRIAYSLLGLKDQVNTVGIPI
Chain of Tyrosine-protein kinase CSK (Homo sapiens) (P41240 2-450 limits assumed): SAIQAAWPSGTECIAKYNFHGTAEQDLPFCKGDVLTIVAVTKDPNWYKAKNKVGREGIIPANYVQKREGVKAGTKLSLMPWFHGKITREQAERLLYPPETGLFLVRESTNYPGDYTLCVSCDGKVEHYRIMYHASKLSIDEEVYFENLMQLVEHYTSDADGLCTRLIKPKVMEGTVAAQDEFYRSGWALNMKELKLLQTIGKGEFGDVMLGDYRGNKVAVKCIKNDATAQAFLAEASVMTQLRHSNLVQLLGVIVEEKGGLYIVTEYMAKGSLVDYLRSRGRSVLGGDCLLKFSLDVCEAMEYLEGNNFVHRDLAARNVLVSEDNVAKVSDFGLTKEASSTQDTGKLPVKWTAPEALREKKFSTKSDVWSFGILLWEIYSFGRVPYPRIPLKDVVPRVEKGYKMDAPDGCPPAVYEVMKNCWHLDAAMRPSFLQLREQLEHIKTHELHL
Chain of Glycogen synthase kinase-3 beta (Homo sapiens) (P49841 whole entry, looked up, the tested form may be a part): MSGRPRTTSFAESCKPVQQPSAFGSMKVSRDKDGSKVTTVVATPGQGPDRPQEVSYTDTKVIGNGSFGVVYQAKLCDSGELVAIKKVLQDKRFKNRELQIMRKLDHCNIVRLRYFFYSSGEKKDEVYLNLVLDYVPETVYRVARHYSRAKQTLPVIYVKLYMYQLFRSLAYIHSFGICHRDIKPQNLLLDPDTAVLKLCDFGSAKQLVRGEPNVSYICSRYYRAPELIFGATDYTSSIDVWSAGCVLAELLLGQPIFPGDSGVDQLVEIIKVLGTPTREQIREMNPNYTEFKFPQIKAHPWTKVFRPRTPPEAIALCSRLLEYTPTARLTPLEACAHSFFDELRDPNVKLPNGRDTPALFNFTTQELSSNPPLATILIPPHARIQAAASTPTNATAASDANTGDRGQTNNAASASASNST
Chain of Dual specificity testis-specific protein kinase 1 (Homo sapiens) (Q15569 whole entry, looked up, the tested form may be a part): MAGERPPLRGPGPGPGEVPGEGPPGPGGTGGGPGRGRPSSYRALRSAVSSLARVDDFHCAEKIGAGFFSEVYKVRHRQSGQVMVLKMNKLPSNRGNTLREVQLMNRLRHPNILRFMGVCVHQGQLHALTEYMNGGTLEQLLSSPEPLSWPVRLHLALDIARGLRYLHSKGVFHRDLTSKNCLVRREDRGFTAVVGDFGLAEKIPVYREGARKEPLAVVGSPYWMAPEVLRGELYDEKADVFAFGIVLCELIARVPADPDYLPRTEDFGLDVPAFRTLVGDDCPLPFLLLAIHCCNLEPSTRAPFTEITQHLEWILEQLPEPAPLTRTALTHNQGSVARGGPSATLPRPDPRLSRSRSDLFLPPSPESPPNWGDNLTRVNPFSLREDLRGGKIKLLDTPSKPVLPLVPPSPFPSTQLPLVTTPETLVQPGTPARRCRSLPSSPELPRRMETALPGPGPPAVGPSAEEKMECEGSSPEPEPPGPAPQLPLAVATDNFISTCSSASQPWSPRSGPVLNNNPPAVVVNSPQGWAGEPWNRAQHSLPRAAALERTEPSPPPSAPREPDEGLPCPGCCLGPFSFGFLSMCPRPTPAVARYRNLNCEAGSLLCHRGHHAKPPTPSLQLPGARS
Chain of Serine/threonine-protein kinase D1 (Homo sapiens) (Q15139 whole entry, the tested form may be a part): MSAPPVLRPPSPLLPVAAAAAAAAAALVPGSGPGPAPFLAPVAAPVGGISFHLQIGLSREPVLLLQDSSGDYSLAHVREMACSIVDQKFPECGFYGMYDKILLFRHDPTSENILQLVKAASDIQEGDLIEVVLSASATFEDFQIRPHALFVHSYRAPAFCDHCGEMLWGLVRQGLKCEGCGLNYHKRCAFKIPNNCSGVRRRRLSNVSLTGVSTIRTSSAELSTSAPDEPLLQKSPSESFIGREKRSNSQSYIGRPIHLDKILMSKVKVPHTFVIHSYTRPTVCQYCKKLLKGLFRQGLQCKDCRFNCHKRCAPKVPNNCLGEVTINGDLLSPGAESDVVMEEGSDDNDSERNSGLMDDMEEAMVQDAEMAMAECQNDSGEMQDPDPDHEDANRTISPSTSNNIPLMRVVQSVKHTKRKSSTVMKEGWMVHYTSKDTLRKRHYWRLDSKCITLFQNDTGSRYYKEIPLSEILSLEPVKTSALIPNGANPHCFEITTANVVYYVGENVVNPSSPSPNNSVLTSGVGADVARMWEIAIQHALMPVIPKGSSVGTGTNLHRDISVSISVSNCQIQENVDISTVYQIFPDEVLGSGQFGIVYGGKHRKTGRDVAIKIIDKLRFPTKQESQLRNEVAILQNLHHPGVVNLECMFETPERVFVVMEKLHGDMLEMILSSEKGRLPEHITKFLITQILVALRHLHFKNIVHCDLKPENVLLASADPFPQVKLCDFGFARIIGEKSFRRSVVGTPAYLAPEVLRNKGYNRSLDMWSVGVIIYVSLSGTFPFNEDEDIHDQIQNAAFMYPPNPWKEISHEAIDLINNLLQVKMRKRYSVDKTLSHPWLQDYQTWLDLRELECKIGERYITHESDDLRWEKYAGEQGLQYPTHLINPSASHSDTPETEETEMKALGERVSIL
Chain of Mitogen-activated protein kinase kinase kinase 7 (Homo sapiens) (O43318 whole entry, the tested form may be a part): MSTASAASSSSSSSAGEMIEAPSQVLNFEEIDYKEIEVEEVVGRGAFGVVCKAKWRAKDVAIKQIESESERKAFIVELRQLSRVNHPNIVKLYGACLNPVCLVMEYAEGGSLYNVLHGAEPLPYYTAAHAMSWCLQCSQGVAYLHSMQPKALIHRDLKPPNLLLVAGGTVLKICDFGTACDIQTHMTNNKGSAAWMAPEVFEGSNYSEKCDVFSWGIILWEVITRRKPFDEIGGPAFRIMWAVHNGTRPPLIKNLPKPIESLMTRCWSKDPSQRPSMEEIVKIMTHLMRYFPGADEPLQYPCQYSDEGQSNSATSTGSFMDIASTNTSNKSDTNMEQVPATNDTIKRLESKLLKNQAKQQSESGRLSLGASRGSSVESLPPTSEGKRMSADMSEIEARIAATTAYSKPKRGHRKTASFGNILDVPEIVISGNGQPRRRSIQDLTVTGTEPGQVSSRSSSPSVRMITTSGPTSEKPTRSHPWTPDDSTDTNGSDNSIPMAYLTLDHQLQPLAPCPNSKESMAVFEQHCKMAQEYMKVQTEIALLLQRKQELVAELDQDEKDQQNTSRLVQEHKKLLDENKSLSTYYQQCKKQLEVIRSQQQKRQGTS
Chain of Dual specificity mitogen-activated protein kinase kinase 6 (Homo sapiens) (P52564 whole entry, the tested form may be a part): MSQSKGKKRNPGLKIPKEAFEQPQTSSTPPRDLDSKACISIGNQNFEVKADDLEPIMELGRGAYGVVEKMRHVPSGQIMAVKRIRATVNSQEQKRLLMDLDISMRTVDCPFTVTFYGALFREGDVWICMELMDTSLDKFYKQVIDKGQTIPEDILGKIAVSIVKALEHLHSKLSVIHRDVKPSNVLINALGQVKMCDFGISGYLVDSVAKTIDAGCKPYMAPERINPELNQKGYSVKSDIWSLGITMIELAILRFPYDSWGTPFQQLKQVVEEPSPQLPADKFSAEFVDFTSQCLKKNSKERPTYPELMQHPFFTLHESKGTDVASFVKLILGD
Chain of Dual specificity tyrosine-phosphorylation-regulated kinase 2 (Homo sapiens) (Q92630 whole entry, the tested form may be a part): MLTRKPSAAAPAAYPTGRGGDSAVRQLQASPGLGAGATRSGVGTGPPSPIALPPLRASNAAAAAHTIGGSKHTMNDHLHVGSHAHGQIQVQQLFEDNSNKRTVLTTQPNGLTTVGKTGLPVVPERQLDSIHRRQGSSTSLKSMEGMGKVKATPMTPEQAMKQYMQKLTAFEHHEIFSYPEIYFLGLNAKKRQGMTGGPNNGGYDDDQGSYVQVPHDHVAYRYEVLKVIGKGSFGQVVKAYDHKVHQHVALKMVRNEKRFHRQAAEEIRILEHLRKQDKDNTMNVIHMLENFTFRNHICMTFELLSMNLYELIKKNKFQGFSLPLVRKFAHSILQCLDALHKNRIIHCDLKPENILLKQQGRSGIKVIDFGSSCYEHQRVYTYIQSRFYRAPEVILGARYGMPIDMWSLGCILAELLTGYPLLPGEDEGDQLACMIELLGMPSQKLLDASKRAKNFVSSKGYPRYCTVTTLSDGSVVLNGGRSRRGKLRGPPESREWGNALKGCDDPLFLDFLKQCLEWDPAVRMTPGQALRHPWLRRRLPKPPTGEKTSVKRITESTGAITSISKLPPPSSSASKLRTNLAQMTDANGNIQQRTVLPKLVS

Activity (MAP4K2): 17% | Activity [1]: 41% | Activity [2]: 66% | degraded at 8 h, 120 ug/ml [3]: 2.42% | Activity [4]: 75% | Activity [5]: 84% | Activity [6]: 88% | Activity [7]: 38% | solubility thermodynamic [8]: 18.9 mg/mL (≈ 61.9 mM) | Activity [9]: 27% | Activity [11]: 70% | solubility thermodynamic [12]: 10.2 mg/mL (≈ 33.6 mM) | Activity [13]: 92% | Activity [14]: 89% | Activity [16]: 16% | Activity [17]: 44% | Activity [18]: 84% | Activity [20]: 42% | solubility thermodynamic [21]: 33.4 mg/mL (≈ 109 mM) | inhibition [22]: 75% | Activity [23]: 79% | Activity [24]: 80% | Activity [25]: 79% | Activity (Homo sapiens): 88% | Activity [26]: 86% | Activity [27]: 90%
SMILES: Cc1cc(=O)c2c(O)cc(O)c([C@H]3CCN(C)C[C@H]3O)c2o1 [ROHITUKINE]
GI50 (T47D): 24 µM | GI50 [10]: 19 µM | Activity [15]: 34% | GI50 (PSN1): 23 µM | GI50 [19]: 22 µM | Activity (HL-60): 10%
